According to US20260285853A1, “COMPOUNDS AND METHODS FOR MODULATING SPLICING” (REMIX THERAPEUTICS INC., priority 2023, published 2026):
Structures can show the parent of a compound that is named as a salt.

Legend:
Type in all cases: cell-based
[1] = test system: MYB mRNA; assay: Splicing RT-qPCR assay (THP), Table 2A
[2] = test system: HTT mRNA; assay: Splicing RT-qPCR assay (THP), Table 2A
[3] = test system: MYB mRNA; assay: Splicing RT-qPCR assay, canonical (CJ) and alternative (AJ) junction mRNA, K562 cells; settings: Homo sapiens, K562.3 cells, 24 hours; for AC50: read-out: MYB AJ (AC50, increase in AJ mRNA); for IC50: read-out: MYB CJ (IC50, decrease in CJ mRNA)
How it was run: (§1)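 K562 (IMDM, 10% FBS); 11-pt 3-fold series, top 10 uM final; DMSO ≤0.25%; 24 h, 37 °C, 5% CO2. Lysis with DNase I, 1-step TaqMan RT-qPCR. ΔΔCt vs housekeeper (GAPDH/GUSB) and DMSO, then RQ and % response.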

[4] = test system: HTT mRNA; assay: as above; settings: Homo sapiens, K562.3 cells, 24 hours; for AC50: read-out: HTT AJ (AC50, increase in AJ mRNA); for IC50: read-out: HTT CJ (IC50, decrease in CJ mRNA)
How it was run: as §1

[5] = test system: SH-SY5Y (human neuroblastoma) cells; assay: Cell viability, Cell Titer Glo 2.0 assay; settings: read-out: Viability SHSY5Y.3 GI50
How it was run: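 Steps: serial DMSO dilution of compound, 1:100 dilution into medium, addition to cells (0.1% DMSO final). Incubate 72 h at 37 °C, 5% CO2. Assay with CellTiter-Glo 2.0 reagent.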

[6] = Table 2A (THP), AJ mRNA increase, read-out: MYB AJ (increase in alternative junction mRNA, AC50)
[7] = Table 2A (THP), CJ mRNA decrease, read-out: MYB CJ (decrease in canonical junction mRNA, IC50)
[8] = Table 2A (THP), AJ mRNA increase, read-out: HTT AJ (increase in alternative junction mRNA, AC50)
[9] = Table 2A (THP), CJ mRNA decrease, read-out: HTT CJ (decrease in canonical junction mRNA, IC50)

| SMILES | AC50 [1, 6] [µM] | IC50 [1, 7] [µM] | AC50 [2, 8] [µM] | IC50 [2, 9] [µM] | AC50 [3] [µM] | IC50 [3] [µM] | AC50 [4] [µM] | IC50 [4] [µM] | GI50 [5] [µM] | AC50 ([1]; Table 2A, THP, MYB alternative junction (AJ) mRNA, read-out: MYB AJ (AC50, increase in alternative junction mRNA)) [µM] | IC50 ([1]; Table 2A, THP, MYB canonical junction (CJ) mRNA, read-out: MYB CJ (IC50, decrease in canonical junction mRNA)) [µM] | AC50 ([2]; Table 2A, THP, HTT alternative junction (AJ) mRNA, read-out: HTT AJ (AC50, increase in alternative junction mRNA)) [µM] | IC50 ([2]; Table 2A, THP, HTT canonical junction (CJ) mRNA, read-out: HTT CJ (IC50, decrease in canonical junction mRNA)) [µM] |
| --- | --- | --- | --- | --- | --- | --- | --- | --- | --- | --- | --- | --- | --- |
| CCN[C@@H]1CCN(c2cc(O)c(C(=O)Nc3cc(F)c4nc(C)cn4c3)c3nn(C)cc23)C1 [Compound 144, 4-[3-(ethylamino)pyrrolidin-1-yl]-N-(8-fluoro-2-methyl-imidazo[1,2-a]pyridin-6-yl)-6-hydroxy-2-methyl-indazole-7-carboxamide] | < 0.1 | < 0.1 | > 10 | > 10 | < 0.1 | < 0.1 | > 10 | > 10 | 0.1 to 1 |  |  |  |  |
| CO[C@H]1C[C@H](N[C@H]2CCN(c3ccc(C(=O)Nc4cc(F)c5nc(C)cn5c4)c4nn(C)cc34)C2)C1 [Compound 275, N-(8-fluoro-2-methylimidazo[1,2-a]pyridin-6-yl)-4-((S)-3-(((1r,3S)-3-methoxycyclobutyl)amino)pyrrolidin-1-yl)-2-methyl-2H-indazole-7-carboxamide] | 0.1 to 1 | 0.1 to 1 | 1 to 10 | 1 to 10 | 0.1 to 1 | 0.1 to 1 | 1 to 10 | 1 to 10 | 1 to 10 |  |  |  |  |
| CN[C@H]1CCN(c2ccc(C(=O)Nc3cc(F)c4nc(C)cn4c3)c3nnn(C)c23)C1 [Compound 166, (S)-N-(8-fluoro-2-methylimidazo-[1,2-a]pyridin-6-yl)-1-methyl-7-(3-(methylamino)pyrrolidin-1-yl)-1H-benzo[d]-[1,2,3]triazole-4-carboxamide] | 0.1 to 1 | 1 to 10 | > 10 | > 10 | 0.1 to 1 | 0.1 to 1 | > 10 | > 10 | 1 to 10 |  |  |  |  |
| COc1c(NC(=O)c2c(F)cc(N3CCNCC3)c3cn[nH]c23)cn2cc(C)nc2c1F [Compound 607, 6-fluoro-N-(8-fluoro-7-methoxy-2-methyl-imidazo[1,2-a]pyridin-6-yl)-4-piperazin-1-yl-1H-indazole-7-carboxamide] |  |  |  |  | < 0.1 | < 0.1 | 1 to 10 | 0.1 to 1 | 0.1 to 1 | < 0.1 | < 0.1 | 1 to 10 | 0.1 to 1 |
| CN[C@H]1CCN(c2ccc(C(=O)Nc3cc(F)c4nc(C)cn4c3)c3nn(C)cc23)[C@H]1C (single isomer, unassigned) [Compound 152] | > 10 | 1 to 10 | > 10 | > 10 | 1 to 10 | 1 to 10 | > 10 | > 10 | > 10 |  |  |  |  |
| CCNC1CCN(c2ccc(C(=O)Nc3cc4cn(C)nc4cc3O)c3[nH]ccc23)CC1 [Compound 190, 4-[4-(ethylamino)-1-piperidyl]-N-(6-hydroxy-2-methyl-indazol-5-yl)-1H-indole-7-carboxamide] | > 10 | > 10 | > 10 | > 10 | > 10 | > 10 | > 10 | > 10 | > 10 |  |  |  |  |
| CCNC1CCN(c2ccc(C(=O)Nc3cc(F)c4nc(C(C)C)cn4c3)c3nn(C)cc23)CC1 [Compound 177, 4-[4-(ethylamino)-1-piperidyl]-N-(8-fluoro-2-isopropyl-imidazo[1,2-a]pyridin-6-yl)-2-methyl-indazole-7-carboxamide] | > 10 | 1 to 10 | > 10 | > 10 | > 10 | > 10 | > 10 | 1 to 10 | 0.1 to 1 |  |  |  |  |
| Cc1cn2cc(NC(=O)c3ccc(N4CCC(NC5CC5)CC4)n4cc(C)nc34)cc(F)c2n1 [Compound 210, 5-(4-(cyclopropylamino)piperidin-1-yl)-N-(8-fluoro-2-methylimidazo[1,2-a]pyridin-6-yl)-2-methylimidazo[1,2-a]-pyridine-8-carboxamide] | < 0.1 | < 0.1 | 0.1 to 1 | < 0.1 | 0.1 to 1 | < 0.1 | 0.1 to 1 | 0.1 to 1 | < 0.1 |  |  |  |  |
| Cc1cn2cc(NC(=O)c3ccc(N4CCC(NC5CC5(C)C)CC4)c4cn(C)nc34)cc(F)c2n1 (stereo not drawn) [Compound 205, 4-(4-((2,2-dimethylcyclopropyl)amino)piperidin-1-yl)-N-(8-fluoro-2-methylimidazo[1,2-a]pyridin-6-yl)-2-methyl-2H-indazole-7-carboxamide] | < 0.1 | < 0.1 | 0.1 to 1 | 0.1 to 1 | < 0.1 | < 0.1 | 1 to 10 | 1 to 10 | 0.1 to 1 |  |  |  |  |
| CCNC1CCN(c2ccc(C(=O)Nc3cn4cc(C)nc4c(OC)n3)c3nn(C)cc23)CC1 [Compound 206, 4-[4-(ethylamino)-1-piperidyl]-N-(8-methoxy-2-methyl-imidazo[1,2-a]pyrazin-6-yl)-2-methyl-indazole-7-carboxamide] | < 0.1 | < 0.1 | 0.1 to 1 | 0.1 to 1 | < 0.1 | < 0.1 | 0.1 to 1 | 0.1 to 1 | 0.1 to 1 |  |  |  |  |
| CN[C@H]1CCN(c2ccc(C(=O)Nc3cc(F)c4nc(C)cn4c3)c3nn(C)nc23)C1 [Compound 163, (S)-N-(8-fluoro-2-methylimidazo-[1,2-a]pyridin-6-yl)-2-methyl-7-(3-(methylamino)pyrrolidin-1-yl)-2H-benzo[d]-[1,2,3]triazole-4-carboxamide] | 0.1 to 1 | 1 to 10 | 1 to 10 | 0.1 to 1 | 0.1 to 1 | 0.1 to 1 | 0.1 to 1 | 0.1 to 1 | 0.1 to 1 |  |  |  |  |
| CCN[C@@H]1CCN(c2cc(O)c(C(=O)Nc3cc(F)c4nn(C)cc4c3)c3nn(C)cc23)C1 [Compound 294, 4-[(3R)-3-(ethylamino)-pyrrolidin-1-yl]-N-(7-fluoro-2-methyl-indazol-5-yl)-6-hydroxy-2-methyl-indazole-7-carboxamide] | < 0.1 | < 0.1 | 1 to 10 | 1 to 10 | < 0.1 | < 0.1 | 1 to 10 | 0.1 to 1 | 0.1 to 1 |  |  |  |  |
| CCNC1CCN(c2cc(F)c(C(=O)Nc3cc(F)c4nc(C)cn4c3)c3ccoc23)CC1 [Compound 195, 7-[4-(ethylamino)-1-piperidyl]-5-fluoro-N-(8-fluoro-2-methylimidazo[1,2-a]pyridin-6-yl)-benzofuran-4-carboxamide] | > 10 | > 10 | > 10 | > 10 | > 10 | > 10 | > 10 | > 10 | 1 to 10 |  |  |  |  |
| CCNC1CCN(c2ccc(C(=O)Nc3cc(F)c4nc(C)oc4c3)c3nn(C)cc23)CC1 [Compound 200, 4-(4-(ethylamino)piperidin-1-yl)-N-(4-fluoro-2-methylbenzo[d]-oxazol-6-yl)-2-methyl-2H-indazole-7-carboxamide] | < 0.1 | < 0.1 | 1 to 10 | 0.1 to 1 | < 0.1 | 0.1 to 1 | 1 to 10 | 0.1 to 1 | 0.1 to 1 |  |  |  |  |
| Cc1cn2cc(NC(=O)c3ccc(N4CCNC(C(F)F)C4)c4cn(C)nc34)cc(F)c2n1 (stereo not drawn) [Compound 249, 4-[3-(difluoromethyl)piperazin-1-yl]-N-(8-fluoro-2-methylimidazo[1,2-a]pyridin-6-yl)-2-methyl-indazole-7-carboxamide] | 0.1 to 1 | 0.1 to 1 | > 10 | 1 to 10 | 0.1 to 1 | 0.1 to 1 | 1 to 10 | 1 to 10 | 1 to 10 |  |  |  |  |
| Cc1cn2cc(NC(=O)c3ccc(N4C[C@@H](C)N[C@@H](C)C4)c4[nH]nnc34)cc(F)c2n1 [Compound 243, 7-((3S,5R)-3,5-dimethylpiperazin-1-yl)-N-(8-fluoro-2-methylimidazo[1,2-a]pyridin-6-yl)-1H-benzo[d][1,2,3]-triazole-4-carboxamide hydrochloride] | > 10 | > 10 | > 10 | > 10 | > 10 | > 10 | > 10 | > 10 | > 10 |  |  |  |  |
